# According to US20240010981A1, “COMPOSITIONS AND METHODS FOR INCREASING STEM CELL FUNCTION” (SOCIETE DES PRODUITS NESTLE S.A., priority 2020, published 2024):
# Entries after “also recorded” stand apart in the source; their conditions may differ.
# Legend:
# [1] = system: murine HSCs (LKS CD150+CD48−); assay: Mitochondrial membrane potential (TMRM staining, flow cytometry) of cultured murine HSCs; type: cell-based, mouse; conditions: compared to the Basal condition; day 3 of culture; NR 500 uM, Vit B12 (MC) 100 uM
# Method: Flow cytometry analysis was performed on freshly isolated bone marrow (BM) from C57BI6 mice. BM was extracted from crushed femora and tibia. Cell suspension was filtered through a 70 μm cell strainer and erythroid cells were eliminated by incubation with red blood cell lysis buffer (eBioscences). Isolation and stains were performed in ice-cold PBS 1 mM EDTA. Lineage positive cells were then removed with a magnetic lineage depletion kit (BD biosciences). Cell suspensions were then stained with specific antibodies for the stem cell compartment and sorted by FACS (BD FACS Aria III) into 1.5 ml Eppendorf tubes.
# The following antibodies were used in this study: rat mAbs against cKit (2B8), Sca1 (D7), CD150 (TC-15-12F12.2), CD48 (HM48-1). The antibodies were purchased from Biolegend, eBiosciences and BD. A mixture of biotinylated mAbs against CD3, CD11b, CD45R/B220, Ly-6G, Ly-6C and TER-119 was used as lineage marker (“lineage cocktail”) and was purchased from BD. DAPI or propidium iodine (PI) staining was used for live/dead cell discrimination.
# Murine HSCs were sorted into 1.5 ml Eppendorf tubes and were cultured in Stemline II (SIGMA) supplemented with 100 ng/ml SCF (R&D) and 2 ng/ml Flt3 (R&D). This was defined as the basal condition. Different concentrations as indicated of UroA, NR and Vit B12 (MC) were added in specific wells. NR was supplemented every 24 hours.
# Mouse HSCs already in culture were incubated at 37° C. for 1 hour with 200 nM tetramethylrhodamine methyl ester (TMRM; Invitrogen) and 100 nM Mitotracker green. Cells were then washed with FACS buffer and analysed by flow cytometry on a BD LSR II.
# Freshly FACS sorted mHSCs (LKS CD150+CD48−) were cultured in basal media (Stemline+SCF+FLT3L) supplemented with UroA, NR and MC in specific wells (as indicated). Cells were harvested at day 3 and stained with tetramethylrhodamine methyl ester (TMRM; to measure mitochondria membrane potential) and Mitotracker (to measure mitochondrial mass) and analysed by flow cytometry.
# human HSCs = conditions: culture media supplemented with nicotinamide riboside, primary and secondary recipient humanised mice; cited from earlier work
SMILES,MFI TMRM (Mean Fluorescence Intensity) [1],proportion of cells in the TMRM low gate [1],levels of engraftment (human HSCs)
"NC(=O)c1ccc[n+]([C@@H]2O[C@H](CO)[C@@H](O)[C@H]2O)c1 [NR, Nicotinamide riboside]",significantly decreased; also recorded: decreases,significantly increased; also recorded: increases,significantly higher
"C/C1=C2/[N-][C@H]([C@H](CC(N)=O)[C@@]2(C)CCC(=O)NC[C@@H](C)OP(=O)([O-])O[C@H]2[C@@H](O)[C@@H](n3cnc4cc(C)c(C)cc43)O[C@@H]2CO)[C@]2(C)N=C(/C(C)=C3N=C(/C=C4N=C1[C@@H](CCC(N)=O)C\4(C)C)[C@@H](CCC(N)=O)[C@]\3(C)CC(N)=O)[C@@H](CCC(N)=O)[C@]2(C)CC(N)=O.[CH3-].[Co] [MC, methylcobalamine]",significantly decreased; also recorded: decreases,significantly increased; also recorded: increases,
